Where two headings read alike, the source gives them in different places.
Experiments:
Assay type in all cases: cell-based, human
[1] = tested on: MYB mRNA; test: Splicing RT-qPCR assay, MYB canonical (CJ) and alternative (AJ) junction mRNA; conditions: Homo sapiens; for AC50: read-out: MYB AJ (AC50, increase in alternative junction mRNA)
Method in brief: (§1)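 Compound-induced exon inclusion is tracked as an increase in AJ transcript alongside the CJ transcript. Cells (A673 normalized to PPIA; K562 to GAPDH or GUSB) are dosed 24 h with a serial dilution topping at 10 uM, ≤0.25% DMSO, then lysed and analysed by RT-qPCR in at least duplicate.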

[2] = tested on: HTT mRNA; test: Splicing RT-qPCR assay, HTT canonical (CJ) and alternative (AJ) junction mRNA; conditions: Homo sapiens, A673 or K562 cells, 24 hours compound treatment; for IC50: 24 h, read-out: HTT CJ (IC50, decrease in canonical junction mRNA); for AC50: read-out: HTT AJ (AC50, increase in alternative junction mRNA)
Method in brief: as §1

[3] = tested on: Target C mRNA; test: Splicing RT-qPCR gene panel, Target C canonical junction (CJ) mRNA; conditions: Homo sapiens, Tables 4A/4B, read-out: Target C (IC50, decrease in CJ mRNA, gene panel)
Method in brief: (§2)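 Read-out: RT-qPCR of the canonical exon-exon junction transcript, ΔCt vs housekeeping gene, normalized to DMSO, RQ = 2^(−ΔΔCt), converted to percentage response. Cells, A673 or K562, were dosed 24 h at 37 °C across 11 3-fold dilutions from 10 uM.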

[4] = tested on: HTT mRNA; test: Splicing RT-qPCR gene panel, HTT canonical junction (CJ) mRNA; conditions: Homo sapiens, Tables 4A/4B, read-out: HTT (IC50, decrease in CJ mRNA, gene panel)
Method in brief: as §2

[5] = tested on: SMN2 mRNA; test: Splicing RT-qPCR gene panel, SMN2 canonical junction (CJ) mRNA; conditions: Homo sapiens, Tables 4A/4B, read-out: SMN2 (IC50, decrease in CJ mRNA, gene panel)
Method in brief: as §2

[6] = 24 h, A673 or K562 cells, 24 hours compound treatment, RT-qPCR
[7] = 24 h, A673 or K562 cells, 24 hours compound treatment, RT-qPCR, read-out: MYB CJ (IC50, decrease in canonical junction mRNA)
[8] = Tables 4A/4B, canonical junction qPCR panel, read-out: MYB (IC50, decrease in CJ mRNA, gene panel)

Row | Compound | IC50 [1, 7] [µM] | IC50 [1, 8] [µM] | IC50 [2] [µM] | IC50 [3] [µM] | IC50 [4] [µM] | IC50 [5] [µM] | AC50 [1, 6] [µM] | AC50 [2] [µM]
1 | Cc1nc2c(F)cc(NC(=O)c3ccc(N4CCNCC4)c4cn(C)nc34)cc2s1 [Compound 235] | 0.1 to 1 | 0.1 to 1 | 1 to 10 | > 10 | 1 to 10 | < 0.1 | 0.1 to 1 | 1 to 10
2 | CC1=CC2=NC(C)=NC2C=C1NC(=O)c1ccc(N2CCNCC2)c2cn(C)nc12 (stereo not drawn) [Compound 237] | 0.1 to 1 | 0.1 to 1 | 1 to 10 | > 10 | 1 to 10 | < 0.1 | < 0.1 | 1 to 10
3 | Cc1cn2cc(NC(=O)c3ccc(N4CCNCC4)c4cn(C)nc34)cc(C)c2n1 [Compound 238] | 0.1 to 1 | 0.1 to 1 | 1 to 10 | > 10 | 1 to 10 | < 0.1 | 0.1 to 1 | 1 to 10
4 | CCC1CN(c2ccc(C(=O)Nc3cc(F)c4nc(C)cn4c3)c3nn(C)cc23)CCN1 (stereo not drawn) [Compound 239] | < 0.1 | < 0.1 | 0.1 to 1 | 1 to 10 | 0.1 to 1 | < 0.1 | 0.1 to 1 | 0.1 to 1
5 | CC1=NC2C=C(NC(=O)c3ccc(N4CCNC(C)(C)C4)c4cn(C)nc34)C=C(F)C2=N1 (stereo not drawn) [Compound 240] | < 0.1 | < 0.1 | 0.1 to 1 | 1 to 10 | 0.1 to 1 | < 0.1 | < 0.1 | 0.1 to 1
6 | Cc1cn2cc(NC(=O)c3ccc(N4CC5(CNC5)C4)c4cn(C)nc34)cc(F)c2n1 [Compound 242] | < 0.1 | < 0.1 | 0.1 to 1 | 1 to 10 | 0.1 to 1 | < 0.1 | 0.1 to 1 | 1 to 10
7 | Cc1cn2cc(NC(=O)c3ccc(N4CC5(CN(C)C5)C4)c4cn(C)nc34)cc(F)c2n1 [Compound 243] | < 0.1 | < 0.1 | 0.1 to 1 | 1 to 10 | 0.1 to 1 | < 0.1 | < 0.1 | 0.1 to 1
8 | Cc1cn2cc(NC(=O)c3ccc(N(C)C4CC(C)(C)NC(C)(C)C4)c4cn(C)nc34)cc(F)c2n1 [Compound 244] | > 10 | > 10 | > 10 | > 10 | > 10 | 0.1 to 1 | > 10 | > 10
9 | CC1=NC2C=C(NC(=O)c3ccc(N(C)C4CCN(C)CC4)c4cn(C)nc34)C=C(F)C2=N1 (stereo not drawn) [Compound 245] | 0.1 to 1 | 0.1 to 1 | 0.1 to 1 | 0.1 to 1 | 0.1 to 1 | < 0.1 | 0.1 to 1 | 0.1 to 1
10 | Cc1cn2cc(NC(=O)c3ccc(N4CCNCC4)c4cn(C)nc34)ncc2n1 [Compound 246] | < 0.1 | < 0.1 | 1 to 10 | > 10 | 1 to 10 | < 0.1 | < 0.1 | 1 to 10
11 | Cc1cn2nc(NC(=O)c3ccc(N4CCNCC4)c4cn(C)nc34)cc2c(C)n1 [Compound 247] | > 10 | > 10 | > 10 | > 10 | > 10 | > 10 | > 10 | > 10
12 | Cc1cn2cc(NC(=O)c3ccc(N4CCC(NC(C)(C)C)C4)c4cn(C)nc34)cc(F)c2n1 (stereo not drawn) [Compound 249] | 0.1 to 1 | 0.1 to 1 | > 10 | > 10 | > 10 | < 0.1 | 0.1 to 1 | > 10
13 | Cc1cn2cc(NC(=O)c3ccc(N4C[C@H]5CC[C@@H](C4)N5)c4cc(C)oc34)cc(F)c2n1 [Compound 255] | 0.1 to 1 | 0.1 to 1 | 1 to 10 | > 10 | 1 to 10 | < 0.1 | < 0.1 | 1 to 10
14 | Cc1cn2cc(NC(=O)c3ccc(N4C[C@H]5CC[C@@H](C4)N5)c4cn(C)nc34)cc(F)c2n1 [Compound 260] | < 0.1 | < 0.1 | 0.1 to 1 | 1 to 10 | 0.1 to 1 | 1 to 10 | < 0.1 | 0.1 to 1

Further lines, with some results ahead:

Row | IC50 [1, 7] [µM] | IC50 [1, 8] [µM] | IC50 [2] [µM] | IC50 [3] [µM] | IC50 [4] [µM] | IC50 [5] [µM] | Compound | AC50 [1, 6] [µM] | AC50 [2] [µM]
15 | > 10 | > 10 | > 10 | > 10 | > 10 | 1 to 10 | Cc1cn2nc(NC(=O)c3ccc(N4CCNCC4)c4cn(C)nc34)nc2c(C)n1 [Compound 253] | > 10 | > 10
16 | 0.1 to 1 | 0.1 to 1 | 1 to 10 | > 10 | 1 to 10 | < 0.1 | Cc1cn2cc(NC(=O)c3ccc(C4CCN(C)CC4)c4cc(C)oc34)cc(F)c2n1 [Compound 256] | 0.1 to 1 | 1 to 10
17 | 0.1 to 1 | 0.1 to 1 | 1 to 10 | > 10 | 1 to 10 | < 0.1 | CCN1CCC(c2ccc(C(=O)Nc3cc(F)c4nc(C)cn4c3)c3oc(C)cc23)CC1 [Compound 257] | 0.1 to 1 | 1 to 10
18 | < 0.1 | < 0.1 | 1 to 10 | 1 to 10 | 1 to 10 | < 0.1 | Cc1cn2cc(NC(=O)c3ccc(N4CCC(N(C)C)C4)c4cn(C)nc34)cc(F)c2n1 (stereo not drawn) [Compound 258] | < 0.1 | 0.1 to 1
19 | 0.1 to 1 | 0.1 to 1 | 1 to 10 | 1 to 10 | 1 to 10 | < 0.1 | Cc1cn2cc(NC(=O)c3ccc(N4CCC(NC(C)(C)C)CC4)c4cn(C)nc34)cc(F)c2n1 [Compound 259] | 1 to 10 | 1 to 10
20 | > 10 | > 10 | > 10 | > 10 | > 10 | 1 to 10 | Cc1cc2c(N3CCNCC3)ccc(C(=O)Nc3ccc4cn(C)nc4c3)c2o1 [Compound 261] | > 10 | > 10
21 | 0.1 to 1 | 0.1 to 1 | 1 to 10 | > 10 | 1 to 10 | < 0.1 | Cc1cn2cc(NC(=O)c3ccc(N4CCNCC4)c4cc(C)oc34)c(C)cc2n1 [Compound 262] | 0.1 to 1 | 1 to 10

Reference: patent publication US20250154169A1, “COMPOUNDS AND METHODS FOR MODULATING SPLICING” (REMIX THERAPEUTICS INC., priority 2021, published 2025)
